Laboratory results published in the supplement of paper PMC10307832.

Key:
Experiment in all cases: relative viability (nuclei count vs DMSO), 5 days (fraction); higher = more cells survive
201T = test system: 201T
In short: (§1)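 After 5 days of treatment, lung cancer cells in 1536-well plates were fixed and stained in a single step (final 0.05% Triton X-100, 1% formaldehyde, 1 ug/ml Hoechst) and their nuclei counted on 4× images. Treatment had been applied by pin tool the day after seeding as one drug alone or as a fixed anchor-drug dose with five library-drug doses (not always all listed) in √10 steps. Relative viability is the nuclei count of treated wells divided by that of vehicle wells, and values are medians of duplicate plates.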

BEN = test system: BEN
In short: as §1

EMC-BAC-2 = test system: EMC-BAC-2
In short: as §1

HARA = test system: HARA
In short: as §1

HCC-44 = test system: HCC-44
In short: as §1

LCLC-103H = test system: LCLC-103H
In short: as §1

LOU-NH91 = test system: LOU-NH91
In short: as §1

NCI-H1395 = test system: NCI-H1395
In short: as §1

NCI-H1993 = test system: NCI-H1993
In short: as §1

NCI-H2023 = test system: NCI-H2023
In short: as §1

NCI-H2087 = test system: NCI-H2087
In short: as §1

## COc1cc2nccc(Oc3ccc(NC(=O)Nc4cc(C)on4)c(Cl)c3)c2cc1OC [Tivozanib] + CC(=O)c1c(C)c2cnc(Nc3ccc(N4CCNCC4)cn3)nc2n(C2CCCC2)c1=O [Palbociclib] (partner 0.5 µM)
201T; first compound 0.005 µM
  relative viability: 0.395
201T; first compound 0.01581 µM
  relative viability: 0.39
201T; first compound 0.05 µM
  relative viability: 0.366
201T; first compound 0.1581 µM
  relative viability: 0.373
201T; first compound 0.5 µM
  relative viability: 0.357
BEN; first compound 0.005 µM
  relative viability: 0.508
BEN; first compound 0.01581 µM
  relative viability: 0.497
BEN; first compound 0.05 µM
  relative viability: 0.453
BEN; first compound 0.1581 µM
  relative viability: 0.44
BEN; first compound 0.5 µM
  relative viability: 0.459
EMC-BAC-2; first compound 0.005 µM
  relative viability: 0.524
EMC-BAC-2; first compound 0.01581 µM
  relative viability: 0.543
EMC-BAC-2; first compound 0.05 µM
  relative viability: 0.529
EMC-BAC-2; first compound 0.1581 µM
  relative viability: 0.521
EMC-BAC-2; first compound 0.5 µM
  relative viability: 0.494
HARA; first compound 0.005 µM
  relative viability: 0.297
HARA; first compound 0.01581 µM
  relative viability: 0.208
HARA; first compound 0.05 µM
  relative viability: 0.3
HARA; first compound 0.1581 µM
  relative viability: 0.245
HARA; first compound 0.5 µM
  relative viability: 0.272
HCC-44; first compound 0.005 µM
  relative viability: 0.958
HCC-44; first compound 0.01581 µM
  relative viability: 0.914
HCC-44; first compound 0.05 µM
  relative viability: 0.989
HCC-44; first compound 0.1581 µM
  relative viability: 0.987
HCC-44; first compound 0.5 µM
  relative viability: 0.922
LCLC-103H; first compound 0.005 µM
  relative viability: 0.452
LCLC-103H; first compound 0.01581 µM
  relative viability: 0.512
LCLC-103H; first compound 0.05 µM
  relative viability: 0.519
LCLC-103H; first compound 0.1581 µM
  relative viability: 0.551
LCLC-103H; first compound 0.5 µM
  relative viability: 0.471
LOU-NH91; first compound 0.005 µM
  relative viability: 0.431
LOU-NH91; first compound 0.01581 µM
  relative viability: 0.498
LOU-NH91; first compound 0.05 µM
  relative viability: 0.513
LOU-NH91; first compound 0.1581 µM
  relative viability: 0.549
LOU-NH91; first compound 0.5 µM
  relative viability: 0.538
NCI-H1395; first compound 0.005 µM
  relative viability: 0.581
NCI-H1395; first compound 0.01581 µM
  relative viability: 0.587
NCI-H1395; first compound 0.05 µM
  relative viability: 0.659
NCI-H1395; first compound 0.1581 µM
  relative viability: 0.55
NCI-H1395; first compound 0.5 µM
  relative viability: 0.509
NCI-H1993; first compound 0.005 µM
  relative viability: 0.551
NCI-H1993; first compound 0.01581 µM
  relative viability: 0.641
NCI-H1993; first compound 0.05 µM
  relative viability: 0.638
NCI-H1993; first compound 0.1581 µM
  relative viability: 0.537
NCI-H1993; first compound 0.5 µM
  relative viability: 0.617
NCI-H2023; first compound 0.005 µM
  relative viability: 0.371
NCI-H2023; first compound 0.01581 µM
  relative viability: 0.447
NCI-H2023; first compound 0.05 µM
  relative viability: 0.384
NCI-H2023; first compound 0.1581 µM
  relative viability: 0.395
NCI-H2023; first compound 0.5 µM
  relative viability: 0.451
NCI-H2087; first compound 0.005 µM
  relative viability: 0.271
NCI-H2087; first compound 0.01581 µM
  relative viability: 0.288
